Results reported in patent US10702518B2, “TAF1 inhibitors for the therapy of cancer” (CeMM—Forschungszentrum für Molekulare Medizin GmbH, priority 2016, dated 2020).

How the values were obtained:
REDS3 cells = experiment: RFP reporter expression in REDS3 cells (live cell imaging); assay type: cell-based, human; conditions: for confirmed screening hit (RFP induction in REDS3 screen): library screen of 89,355 small molecules; for RFP expression in REDS3 cells: single agent
Protocol: Cells were seeded on clear flat bottom 96-well or 384-well plates (Corning) and treated with the indicated compounds for the specified conditions. Live cell imaging pictures were taken with the Operetta High Content Screening System (PerkinElmer), 20× objective and non-confocal mode.
Only RFP-positive nuclei were detected and counted.
The increase of RFP fluorescence, detected with the Operetta High Content Screening System (PerkinElmer), 20× objective and non-confocal mode, was used as read-out.
Briefly, the screening was divided in three parts called respectively 1) primary screening, 2) follow up and 3) validation. During the primary screening REDS3 cells were treated with 10 μM of every compound, and live cell imaging pictures were taken in order to assess their ability to induce RFP expression 24 hours later.

THP1 cells [1] = experiment: Cell cycle assay in THP1 cells; conditions: 48 hours
Protocol: (e) Quantification of cells in S-phase by staining the nuclei with PI and analyzing DNA content by FACS. […] Three different biological replicates were performed and 30,000 cells were analysed each time (mean±STD).
For cell cycle analysis, cells were fixed with 70% ethanol for 24 hours, washed with PBS/0.1%-Tween and incubated with RNase for 20 minutes. Nuclei were stained with 5 μg/ml PI (propidium iodide, Sigma) for 10 minutes prior to FACS analysis (BD FACSCalibur Flow Cytometer).

THP1 cells [2] = experiment: AnnexinV apoptosis assay in THP1 cells; conditions: 72 hours
Protocol: (f) Quantification of AnnexinV positive cells from immunofluorescence images. […] At least 3 biological replicates were performed and more than 1,500 cells were quantified for each point (mean±STD).
Apoptotic cells were detected using the Annexin V-FITC Apoptosis detection kit (Abcam) according to the manufacturer's instruction. Apoptosis quantification was performed with the Harmony software (PerkinElmer) for nuclei and cytoplasm detection and analysis, adapted for the nucleus diameter range and cell shape of the specific cell line used.

KBM7 cells = experiment: CellTiterGlo viability of control and TAF1 downregulated KBM7 cells; conditions: shRNA TAF1 vs control, 96 hours
TAF1(BD2) [3] = molecular target: T1, TAF1(BD2) (Homo sapiens, UniProt P21675); experiment: BROMOscan primary screen, binding to TAF1(BD2); conditions: for TAF1_BD2 (% inhibition at 1 μM): 1 μM compound, DMSO = 0%, 30 μM BI2536 = 100% inhibition; for inhibition at 1 µM: read-out: TAF1_BD2 (% inhibition at 1 μM)
T1 construct: the second bromodomain of TAF1 (TAF1 (2)); purchased DiscoverX Corporation (contract assay); host or cells: T7 phage in E. coli host derived from BL21
T1 sequence (P21675 1519-1628 limits assumed): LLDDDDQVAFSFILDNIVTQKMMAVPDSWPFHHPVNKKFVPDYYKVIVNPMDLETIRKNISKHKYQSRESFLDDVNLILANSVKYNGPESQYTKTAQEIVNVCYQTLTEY
Protocol: The binding of these compounds to TAF1 was tested by DiscoverX Corporation (Fremont, Calif., USA) in a primary screen using the BROMOscan assay, which is a ligand binding site-directed competition assay that allows to quantitatively measure interactions between test compounds and bromodomains (see Fabian et al., 2005 for an explanation of the principle of this assay), according to the following protocol:
(§1) Bromodomain assays: T7 phage strains displaying bromodomains were grown in parallel in 24-well blocks in an E. coli host derived from the BL21 strain. E. coli were grown to log-phase and infected with T7 phage from a frozen stock (multiplicity of infection=0.4) and incubated with shaking at 32° C. until lysis (90-150 minutes). The lysates were centrifuged (5,000×g) and filtered (0.2 μm) to remove cell debris. Streptavidin-coated magnetic beads were treated with biotinylated small molecule or acetylated peptide ligands for 30 minutes at room temperature to generate affinity resins for bromodomain assays. The liganded beads were blocked with excess biotin and washed with blocking buffer (SeaBlock (Pierce), 1% BSA, 0.05% Tween 20, 1 mM DTT) to remove unbound ligand and to reduce non-specific phage binding. […] Test compounds were prepared as 1000× stocks in 100% DMSO and subsequently diluted 1:25 in monoethylene glycol (MEG). The compounds were then diluted directly into the assays such that the final concentrations of DMSO and MEG were 0.1% and 2.4%, respectively. All reactions were performed in polypropylene 384-well plates in a final volume of 0.02 ml. […] The bromodomain concentration in the eluates was measured by qPCR.

TAF1(BD2) [4] = molecular target: T1, TAF1(BD2); experiment: BROMOscan binding constant determination for TAF1(BD2); conditions: 11-point 3-fold dilution series, read-out: TAF1_BD2 (IC50 μM)
Protocol: as §1, with “100% DMSO. Kds were determined using an 11-point 3-fold compound dilution series with one” for “100%”, “control point. […]” for “and subsequently diluted 1:25 in monoethylene glycol (MEG).”, “concentration” for “concentrations”, “was 0.09%.” for “and MEG were 0.1% and 2.4%, respectively.”, “reactions” for “reactions were”, “plates. Each was” for “plates in”
Compound handling: An 11-point 3-fold serial dilution of each test compound was prepared in 100% DMSO at 1000× final test concentration. […] The compounds were then diluted directly into the assays such that the final concentration of DMSO was 0.09%. Most Kds were determined using a compound top concentration=10,000 nM. If the initial Kd determined was <0.169 nM (the lowest concentration tested), the measurement was repeated with a serial dilution starting at a lower top concentration.
Binding constants (Kds) were calculated with a standard dose-response curve using the Hill equation: […]
The Hill Slope was set to −1. Curves were fitted using a non-linear least square fit with the Levenberg-Marquardt algorithm.
The results thus obtained are reported in the following table as IC50 values [μM] for TAF1(BD2).

TAF1 (2) = molecular target: T2, TAF1 (2) (Homo sapiens, UniProt P21675); experiment: BromoScan / BromoELECT / BromoKdELECT, TAF1 (2); assay type: binding; conditions: BromoScan/BromoELECT, 10 μM
T2 construct: the second bromodomain of TAF1 (TAF1 (2)); purchased DiscoverX Corporation (contract assay); host or cells: T7 phage in E. coli host derived from BL21
T2 sequence (P21675 1519-1628 limits assumed): T1 sequence (P21675 1519-1628 limits assumed)
Protocol: (§2) Bubbles indicate the percentage of inhibition of the binding of the analyzed bromodomains to an acetylated substrate. […] (g) BromoKdELECT assay for CeMMEC1 against TAF1 (2). […] (i) Docking of CeMMEC1 to the second bromodomain of TAF1. 3D model (top panel) and 2D ligand interaction diagram (bottom panel). Red dots in the 3D model indicate water molecules.
(§3) (c) not used (d) KinomeScan profile for CeMMEC1 (10 μM). Bubbles indicate the percentage of inhibition of the binding of the analyzed kinase to an immobilized ligand.

CREBBP = CREBBP (Homo sapiens, UniProt Q92793); experiment: BromoScan / BromoELECT / BromoKdELECT, CREBBP; assay type: binding; conditions: BromoScan/BromoELECT, 10 μM
Protocol: as §2, §3

Sequence of CREBBP (Q92793 1085-1192 limits assumed): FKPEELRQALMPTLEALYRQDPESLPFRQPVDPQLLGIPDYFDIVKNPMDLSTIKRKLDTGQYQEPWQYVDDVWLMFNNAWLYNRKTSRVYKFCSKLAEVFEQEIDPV

## Cc1sc2c(c1C)C(c1ccc(Cl)cc1)=N[C@@H](CC(=O)OC(C)(C)C)c1nnc(C)n1-2 [(S)-JQ1, reference compound]
REDS3 cells; 24 hours
  lowest concentration causing full activation of RFP signal: 0.5 µM
  confirmed screening hit (RFP induction in REDS3 screen): part of this group
REDS3 cells
  RFP expression in REDS3 cells: clear and robust increase of RFP expression
THP1 cells [1]
  number of cells in S-phase: clear and dose-dependent decrease of the number of cells in S-phase
THP1 cells [2]
  apoptosis (AnnexinV staining): induced apoptosis
KBM7 cells
  cell viability with TAF1 downregulation: Downregulation of TAF1 decreased cell viability when (S)-JQ1 was used at concentrations not able to affect control cells

## CC[C@@H]1C(=O)N(C)c2cnc(Nc3ccc(C(=O)NC4CCN(C)CC4)cc3OC)nc2N1C1CCCC1 [BI-2536]
REDS3 cells; 24 hours
  confirmed screening hit (RFP induction in REDS3 screen): part of this group

## COc1ccc(CCc2nc3cc(-c4c(C)noc4C)ccc3n2C[C@H](C)N2CCOCC2)cc1Cl [CBP30]
REDS3 cells; 10 μM, 24 hours
  increase of RFP-positive cells compared to DMSO treated cells: 1.5 fold

## Cn1c(=O)cc(C(=O)Nc2ccc3c(c2)OCCO3)c2ccccc21 [Compound 4-1]
TAF1(BD2) [3]
  TAF1_BD2 (% inhibition at 1 μM): 89%
TAF1(BD2) [4]
  IC50: 0.25 µM

## COc1ccc(NC(=O)c2cc(=O)n(C)c3ccccc23)cc1 [Compound 4-2]
TAF1(BD2) [3]
  inhibition at 1 µM: 9%

## Cn1c(=O)cc(C(=O)Nc2ccc(OC(F)(F)F)cc2)c2ccccc21 [Compound 4-3]
TAF1(BD2) [3]
  inhibition at 1 µM: 20%

## COc1cc(NC(=O)c2cc(=O)n(C)c3ccccc23)cc(OC)c1 [Compound 4-4]
TAF1(BD2) [3]
  inhibition at 1 µM: 48%

## Cn1ccc(C(=O)Nc2ccc3c(c2)OCCO3)cc1=O [Compound 4-10]
TAF1(BD2) [3]
  inhibition at 1 µM: 3%

## Cn1ccc(C(=O)Nc2ccc(OC(F)(F)F)cc2)cc1=O [Compound 4-13]
TAF1(BD2) [3]
  inhibition at 1 µM: 3%

## COc1cc(NC(=O)c2ccn(C)c(=O)c2)cc(OC)c1 [Compound 4-14]
TAF1(BD2) [3]
  inhibition at 1 µM: 20%

## COc1ccc(C(=O)Nc2cccc3c(=O)n(C)ccc23)cc1 [Compound 4-16]
TAF1(BD2) [3]
  inhibition at 1 µM: 34%

## Cn1ccc2c(NC(=O)c3ccc(OC(F)(F)F)cc3)cccc2c1=O [Compound 4-17]
TAF1(BD2) [3]
  inhibition at 1 µM: 11%

## Cn1c(=O)ccc2c(C(=O)Nc3ccc4c(c3)OCCO4)cccc21 [Compound 4-24]
TAF1(BD2) [3]
  inhibition at 1 µM: 58%

## Cn1c(=O)ccc2c(NC(=O)c3ccc4c(c3)CCCO4)cccc21 [Compound 4-25]
TAF1(BD2) [3]
  TAF1_BD2 (% inhibition at 1 μM): 4%

## COc1ccc(C(=O)Nc2cccc3c2ccc(=O)n3C)cc1 [Compound 4-26]
TAF1(BD2) [3]
  TAF1_BD2 (% inhibition at 1 μM): 82%
TAF1(BD2) [4]
  IC50: 0.056 µM

## COc1cc(OC)cc(C(=O)Nc2cccc3c2ccc(=O)n3C)c1 [Compound 4-28]
TAF1(BD2) [3]
  inhibition at 1 µM: 50%

## Cn1c2c(ccc1=O)C(NC(=O)c1ccc3c(c1)OCCO3)CCC2 (stereo not shown) [Compound 4-29]
TAF1(BD2) [3]
  inhibition at 1 µM: 32%

## COc1ccc(C(=O)NC2CCCc3c2ccc(=O)n3C)cc1 (stereo not shown) [Compound 4-31]
TAF1(BD2) [3]
  inhibition at 1 µM: 34%

## Cn1c2c(ccc1=O)C(NC(=O)c1ccc(OC(F)(F)F)cc1)CCC2 (stereo not shown) [Compound 4-32]
TAF1(BD2) [3]
  inhibition at 1 µM: 10%

## COc1cc(OC)cc(C(=O)NC2CCCc3c2ccc(=O)n3C)c1 (stereo not shown) [Compound 4-33]
TAF1(BD2) [3]
  inhibition at 1 µM: 11%

## Cn1ccc2c(NC(=O)c3ccc4c(c3)OCCO4)cccc2c1=O [Compound 30]
TAF1(BD2) [4]
  IC50: 4 µM
TAF1 (2)
  binding to TAF1 (2): retaining TAF1 activity
CREBBP
  binding to CREBBP: lost all affinity to CREBBP
REDS3 cells; combination with (S)-JQ1
  RFP expression in REDS3 cells in combination with (S)-JQ1: further boosted RFP expression beyond the increase in single treatments
REDS3 cells
  RFP expression in REDS3 cells: comparable induction of RFP expression in REDS3 cells

## COc1cc2c(cc1-c1c(C)noc1C)ncc1[nH]c(=O)n([C@H](C)c3ccccn3)c12 [I-BET151]
REDS3 cells; 24 hours
  confirmed screening hit (RFP induction in REDS3 screen): part of this group

## CCC(=O)N1CCOc2c(cc(-c3ccc(OC)c(OC)c3)cc2OC[C@H]2CCCN(C)C2)C1 [I-CBP112]
REDS3 cells
  RFP expression in REDS3 cells: No RFP expression was detected

## Cc1sc2c(c1C)C(c1ccc(Cl)cc1)=N[C@@H](CC(=O)Nc1ccc(O)cc1)c1nnc(C)n1-2 [OXT015]
REDS3 cells; 24 hours
  confirmed screening hit (RFP induction in REDS3 screen): part of this group

## COc1ccccc1S(=O)(=O)Nc1ccc2c(c1)CN(C)C(=O)N2 [PFI1]
REDS3 cells; 24 hours
  confirmed screening hit (RFP induction in REDS3 screen): part of this group

## CCCCCCCCCCCCCC(=O)O[C@@H]1[C@@H](C)[C@@]2(O)[C@@H](C=C(CO)C[C@]3(O)C(=O)C(C)=C[C@@H]23)[C@@H]2C(C)(C)[C@]12OC(C)=O [PMA, phorbol myristate acetate]
REDS3 cells
  RFP expression in REDS3 cells: No increase of RFP-positive nuclei was observed

## COc1cc(OC)c2c(=O)[nH]c(-c3cc(C)c(OCCO)c(C)c3)nc2c1 [RVX208]
REDS3 cells; 24 hours
  confirmed screening hit (RFP induction in REDS3 screen): part of this group

## Cc1cnc(Nc2ccc(OCCN3CCCC3)cc2)nc1Nc1cccc(S(=O)(=O)NC(C)(C)C)c1 [TG-101348]
REDS3 cells; 24 hours
  confirmed screening hit (RFP induction in REDS3 screen): part of this group

## phytohemagglutinin [PHA]
REDS3 cells
  RFP expression in REDS3 cells: No increase of RFP-positive nuclei was observed
